Each structure is given as a SMILES string.

The text below walks through data of PMC8381602, “Non-palm Plant Volatile α-Pinene Is Detected by Antenna-Biased Expressed Odorant Receptor 6 in the Rhynchophorus ferrugineus (Olivier) (Coleoptera: Curculionidae)” (Frontiers in Physiology, 2021).

The subject of the experiment is T1, RferOr6/RferOrco.
T1 construct: full-length ORF of RferOr6 (382 residues, 7 predicted TMDs) cloned from antennal cDNA in pT7TS; cRNA co-injected 1:1 with RferOrco in Xenopus oocytes; with Odorant receptor coreceptor
Nature of the experiment: two-electrode voltage clamp, Xenopus oocytes, dose-response. It counts as cell-based, Rhynchophorus ferrugineus. Particulars: agonist; co-expressed with RferOrco 1:1; holding potential -80 mV; Ringer's buffer pH 7.6; 20 s exposure. A general note: Two-electrode voltage clamp holds a large cell at a set potential and records current.

In the case of `CC1=CCC2CC1C2(C)C` (stereo not drawn) [α-pinene], the EC50 stood at 94.5 µM.

One may read the EC50 as the midpoint of the concentration-response curve. A low value points to higher potency in that assay.
